Legend:
Zmpste24−/− mice [1] = experiment: BMSC colony-forming efficiency after in vivo treatment of Zmpste24−/− mice; set-up: species or system mouse; conditions: NAC 1 mg/ml in drinking water
Method: (§1) Zmpste24^−/− mice have been described previously (Pendas et al., 2002). Mouse experimentation was performed in accordance with the guidelines of the Committee on the Use of Live Animals in Teaching and Research (CULATR) at the University of Hong Kong. New-born Zmpste24^−/− mice and wild-type controls were fed with resveratrol (20 μg/ml) or N-acetyl Cysteine (1 mg/ml) in drinking water. The survival of resveratrol-treated, NAC-treated, or vehicle-treated Zmpste24^−/− mice was recorded and their body weight was monitored weekly. The trabecular bone organization and bone mineral density were determined by micro-CT. The survival rate was analyzed by Kaplan-Meier method and statistical comparison was performed by Log-rank (Mantel-Cox) Test.
Bone marrow stromal cells were isolated and cultured according to modified protocol (Enumeration and Expansion of Mouse Mesenchymal Progenitor Cells Using MESENCUILT®, Stemcell Technologies, Canada). Briefly, bone marrow cells were flushed out from femurs and tibias with α-MEM (Invitrogen, Carlsbad, Calif., USA) supplemented with 20% FBS, and plated in petri dishes. Non-adherent cells were removed on day 3 and medium was replaced every 3 days. […] Colonies containing more than 50 cells were counted. BMSC colony forming efficiency was calculated as number of colonies formed by […] bone marrow nucleated cells. […]

Zmpste24−/− mice [2] = experiment: HSC population in bone marrow of treated Zmpste24−/− mice (FACS); format: in vivo, mouse; conditions: NAC 1 mg/ml in drinking water
Method: as §1, with “Zmpste24^-/-” for “Zmpste24^−/−”, “([…]” for “(Pendas”, “Test. To analyze hematopoietic stem cells, mononucleated cells were collected by flushing femurs and tibias with staining medium (HBSS supplemented with 2% FBS) and stained with biotin-coupled lineage markers, Biotin-Flt3, PE-Sca-1, APC-c-Kit, and then SAv-PerCP. FACS profile analyses were performed using a BD FACSCalibur.” for “Test.”

Zmpste24−/− mice [3] = experiment: Survival and body weight of Zmpste24−/− mice treated via drinking water; format: in vivo, mouse; conditions: NAC 1 mg/ml in drinking water
Method: as §1
Briefly, resveratrol was supplemented at a concentration of 20 μg/ml in drinking water. Four months after treatment, BMSCs were collected for examination and comparison between resveratrol-treated and vehicle-treated Zmpste24^−/− mice.

Zmpste24−/− HSCs = experiment: ROS level in freshly isolated HSCs (DCF-DA, FACS); format: in vivo, mouse; conditions: NAC 1 mg/ml in drinking water; elevated in Zmpste24−/− HSCs
Method: as §1
To purify HSCs, red blood cells were lysed using NH4Cl before surface-marker staining, and HSCs were then sorted with a BD FACSVantage SE. Sorted HSCs were incubated with 5 μM DCF-DA at 37° C. for 30 min and analyzed by FACS at 488-nm excitation and 525-nm emission to determine the ROS level.

SIRT1 [4] = target: T1, SIRT1 (Homo sapiens, UniProt Q96EB6); conditions: Beher 2009; Dai 2010; Pacholec 2010; cited from earlier work
T1 sequence (Q96EB6 1-747): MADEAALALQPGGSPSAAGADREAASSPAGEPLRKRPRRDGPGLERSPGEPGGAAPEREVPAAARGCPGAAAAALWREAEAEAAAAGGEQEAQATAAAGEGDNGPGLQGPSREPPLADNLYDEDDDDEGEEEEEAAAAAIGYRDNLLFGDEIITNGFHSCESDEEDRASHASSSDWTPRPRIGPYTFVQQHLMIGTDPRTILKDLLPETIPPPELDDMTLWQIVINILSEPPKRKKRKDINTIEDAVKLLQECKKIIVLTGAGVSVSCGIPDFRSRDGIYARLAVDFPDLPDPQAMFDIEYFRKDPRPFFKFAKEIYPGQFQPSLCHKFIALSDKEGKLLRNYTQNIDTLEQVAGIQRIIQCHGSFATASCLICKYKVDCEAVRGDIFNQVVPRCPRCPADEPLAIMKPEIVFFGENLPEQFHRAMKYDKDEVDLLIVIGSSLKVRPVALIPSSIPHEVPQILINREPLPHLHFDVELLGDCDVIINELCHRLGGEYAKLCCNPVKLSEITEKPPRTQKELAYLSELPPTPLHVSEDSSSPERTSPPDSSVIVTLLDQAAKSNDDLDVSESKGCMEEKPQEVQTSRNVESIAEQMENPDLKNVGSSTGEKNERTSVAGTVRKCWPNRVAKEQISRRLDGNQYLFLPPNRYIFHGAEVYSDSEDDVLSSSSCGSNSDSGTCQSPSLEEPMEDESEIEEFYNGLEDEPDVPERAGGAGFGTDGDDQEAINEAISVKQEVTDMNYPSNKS

SIRT1 [5] = target: T1, SIRT1; experiment: BIOMOL SIRT1 Fluorimetric Drug Discovery Kit (BSDK) deacetylase assay on fluorophore-conjugated acetyl p53 peptide; format: biochemical; set-up: purchased Biomol (Hamburg, Germany)
Method: (§2) SIRT1 deacetylation assay on fluorophore-conjugated synthetic p53 peptide was performed with SIRT1 Fluorimetric Drug Discovery Kit (Biomol, Hamburg, Germany) according to the manufactory's instruction. Cells were fractionated as described above except that protease inhibitors were NOT included and the nuclear matrix fraction was suspended into the assay buffer provided by the supplier. Different cell fractions or recombinant human lamin A (rhLamin A, Diatheva, Italy) were added in the reaction mix of SIRT1 Fluorimetric Drug Discovery Kit, incubated for 20 min at 37° C., and then the reaction was stopped and fluorescent signal was detected. SIRT1 deacetylase activity on native target was assayed using SIRT1 assay Kit from Sigma (USA). Constructs encoding FLAG-p53 and HA-p300 were co-transfected into HEK293 cells; FLAG-p53 was immunoprecipitated by anti-FLAG M2 Agarose (Sigma) followed by elution with FLAG peptide (Sigma). Purified acetyl FLAG-p53 was incubated with recombinant human SIRT1 (rhSIRT1) and NAD+ for 30 min at 37° C., in the presence or absence of rhLamin A or resveratrol. The acetylation level of FLAG-p53 was determined by Western blotting with pan anti acetyl lysine antibodies.
To test this hypothesis, in vitro deacetylase activity of rhSIRT1 by a BIOMOL® SIRT1 Fluorimetric Drug Discovery Kit (BSDK) was quantified in the presence or absence of NM derived from wild-type or Zmpste24−/− BMSCs.
This Example further investigates whether lamin A acts as an activator of SIRT1. In mammalian cells, lysine acetyltransferase p300 and SIRT1 mediate the acetylation and deacetylation of p53 on residue K382 (Gu and Roeder, 1997). BSDK utilizes fluorophore-conjugated acetyl p53 peptide as target (see Materials and Methods).

SIRT1 [6] = target: T1, SIRT1; experiment: SIRT1 deacetylation assay on native full-length acetyl FLAG-p53 (Western blotting, anti-acetyl lysine); format: biochemical; set-up: purchased Biomol (Hamburg, Germany)
Method: as §2
To further test the effect of rhLamin A on the native target of SIRT1, acetyl p53 was purified by anti-FLAG immunoprecipitation in HEK293 cells ectopically expressing FLAG-p53 and p300, and SIRT1 deacetylation assay was performed as described in Materials and Methods.

[7] = target: T2, rhSIRT1 binding to rhLamin A (Homo sapiens, UniProt Q96EB6); experiment: Pull-down of rhSIRT1 with rhLamin A in test tube (anti-lamin A immunoprecipitation); conditions: in a test tube
T2 construct: purchased Diatheva, Italy (rhLamin A)
T2 sequence (Q96EB6 1-747): T1 sequence (Q96EB6 1-747)
T2 sequence (P02545 1-664 partner): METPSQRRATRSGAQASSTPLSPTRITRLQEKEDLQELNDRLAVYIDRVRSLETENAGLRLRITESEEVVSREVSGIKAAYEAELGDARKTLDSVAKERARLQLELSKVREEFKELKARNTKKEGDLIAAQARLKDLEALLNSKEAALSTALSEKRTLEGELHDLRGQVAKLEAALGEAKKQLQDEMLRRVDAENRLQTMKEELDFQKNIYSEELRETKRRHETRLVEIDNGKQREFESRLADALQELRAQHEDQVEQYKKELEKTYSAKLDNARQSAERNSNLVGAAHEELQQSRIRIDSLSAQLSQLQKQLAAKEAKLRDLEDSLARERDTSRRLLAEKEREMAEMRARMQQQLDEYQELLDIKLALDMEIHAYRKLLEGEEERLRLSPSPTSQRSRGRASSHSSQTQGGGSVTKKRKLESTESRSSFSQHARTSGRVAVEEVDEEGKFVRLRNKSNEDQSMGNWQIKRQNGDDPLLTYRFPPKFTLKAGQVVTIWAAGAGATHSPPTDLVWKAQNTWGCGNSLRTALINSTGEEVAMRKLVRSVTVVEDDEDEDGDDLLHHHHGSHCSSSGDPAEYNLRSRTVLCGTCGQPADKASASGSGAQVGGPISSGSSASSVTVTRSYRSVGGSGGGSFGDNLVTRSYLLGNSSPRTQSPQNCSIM
Method: For co-immunoprecipitation, cells were lysed into pre-chilled RIPA buffer containing 300 mM or 500 mM NaCl and protease inhibitors. Primary antibodies or appropriate control IgGs were added to the lysate and incubated for 2 h on a rocking platform at 4° C. before Agarose beads were added and incubated O/N. The beads were washed twice with RIPA buffer, resuspended into Laemmli buffer and boiled, and protein suspension was collected by centrifugation and stored for further analysis.
Consistently, ectopic EGFP-SIRT1 and DsRed-lamin A co-existed in the nuclear interior (FIG. 1D). This interaction seems specific to nuclear SIRT1 as neither cytoplasmic SIRT1 nor mitochondrial SIRT5 was detected in the anti GFP-lamin A immunoprecipitates (FIG. 6C). In addition, SIRT1 physically interacts with lamin A as recombinant human SIRT1 (rhSIRT1) was pulled down by recombinant human lamin A (rhLamin A) in a test tube (FIG. 1E).

CC(=O)N[C@@H](CS)C(=O)O [N-acetyl Cysteine]
decline in BMSCs (Zmpste24−/− mice [1]): rescued | decline in HSCs (Zmpste24−/− mice [2]): rescued | lifespan (Zmpste24−/− mice [3]): extended lifespan to a similar extent as resveratrol did | ROS level in HSCs (Zmpste24−/− HSCs): rescued ROS level

O=C(Nc1ccccc1-c1cn2c(CN3CCNCC3)csc2n1)c1cnc2ccccc2n1 [SRT1720]
SIRT1 activation towards full-length native target proteins, including p53 and PGC-1α (SIRT1 [4]): do not confer any SIRT1 activation

Cc1ccc(C(=O)Nc2ccc(S(=O)(=O)O)c3cc(S(=O)(=O)O)cc(S(=O)(=O)O)c23)cc1NC(=O)c1cccc(NC(=O)Nc2cccc(C(=O)Nc3cc(C(=O)Nc4ccc(S(=O)(=O)O)c5cc(S(=O)(=O)O)cc(S(=O)(=O)O)c45)ccc3C)c2)c1 [Suramin]
Lamin A-stimulated SIRT1 deacetylase activity (SIRT1 [5]; SIRT1 inhibitor added): completely abolished

B1: LA-80: synthetic peptide of carboxyl 80 aa of lamin A (peptide)
peptide: GSHCSSSGDPAEYNLRSRTVLCGTCGQPADKASASGSGAQVGGPISSGSSASSVTVTRSYRSVGGSGGGSFGDNLVTRSY
activating potential on SIRT1 towards full-length acetylated FLAG-p53 protein (SIRT1 [6]; compared with lamin A): much higher activating potential | activating potential on SIRT1 towards fluorophore-conjugated synthetic peptide (Ac-Arg-His-Lys-LysAc-AMC) (SIRT1 [5]; compared with lamin A): much higher activating potential

B2: rhLamin A: recombinant human lamin A (rhLamin A, Diatheva, Italy) (protein, listed as Homo sapiens)
chain: T2 sequence (P02545 1-664 partner)
decrease in FLAG-p53 acetylation level (SIRT1 [6]; rhLamin A-rhSIRT1 complex compared with rhSIRT1 only): around 20% | deacetylase activity of rhSIRT1 on acetyl p53 peptide (SIRT1 [5]; in the presence of rhLamin A, molar ratio rhLamin A to rhSIRT1 0.5, 1.0, 2.0, 4.0): increased in a dose-dependent manner | rhSIRT1 pulled down by rhLamin A [7]: pulled down

— patent publication US10086039B2, “Lamin A, an activator of longevity/anti-aging SIRT1 protein” (THE UNIVERSITY OF HONG KONG, priority 2012, dated 2018)
